Experimental data reported in ChEMBL document CHEMBL1201862, “PubChem BioAssay data set” (2004).
Calls of active or inactive are those of the source.

Experiments:
cells [1] = type: functional, cell-based
[2] = target: Nuclear receptor subfamily 0 group B member 1 (Homo sapiens, UniProt P51843); type: functional, cell-based;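 note: HEK293T cells transfected with SF-1 and DAX-1 plus StAR promoter luciferase reporter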
[3] = target: Tyrosyl-DNA phosphodiesterase 2 (Homo sapiens, UniProt O95551); assay: potency against TDP2 phosphodiesterase activity – biochemical, epi absorbance, IC50, dose response (AID 743297)
[4] = T. cruzi growth inhibition in host cells, dose response, cell-based, plate reader, dry powder, set 2 (AID 652275); type: functional
[5] = target: Matrix metalloproteinase-14 (Homo sapiens, UniProt P50281); assay: Dose Response confirmation of uHTS hits for a small molecule inhibitors of MT1-MMP activation in a fluorescence assay set 1.; type: functional
[6] = target: T1, Replicative DNA helicase DnaB (Mycobacterium tuberculosis, UniProt P9WMR3); assay: DnaB intein splicing inhibitors, dose response, biochemical, cell-free fluorescence (AID 449749); type: functional
T1 sequence (P9WMR3 whole entry): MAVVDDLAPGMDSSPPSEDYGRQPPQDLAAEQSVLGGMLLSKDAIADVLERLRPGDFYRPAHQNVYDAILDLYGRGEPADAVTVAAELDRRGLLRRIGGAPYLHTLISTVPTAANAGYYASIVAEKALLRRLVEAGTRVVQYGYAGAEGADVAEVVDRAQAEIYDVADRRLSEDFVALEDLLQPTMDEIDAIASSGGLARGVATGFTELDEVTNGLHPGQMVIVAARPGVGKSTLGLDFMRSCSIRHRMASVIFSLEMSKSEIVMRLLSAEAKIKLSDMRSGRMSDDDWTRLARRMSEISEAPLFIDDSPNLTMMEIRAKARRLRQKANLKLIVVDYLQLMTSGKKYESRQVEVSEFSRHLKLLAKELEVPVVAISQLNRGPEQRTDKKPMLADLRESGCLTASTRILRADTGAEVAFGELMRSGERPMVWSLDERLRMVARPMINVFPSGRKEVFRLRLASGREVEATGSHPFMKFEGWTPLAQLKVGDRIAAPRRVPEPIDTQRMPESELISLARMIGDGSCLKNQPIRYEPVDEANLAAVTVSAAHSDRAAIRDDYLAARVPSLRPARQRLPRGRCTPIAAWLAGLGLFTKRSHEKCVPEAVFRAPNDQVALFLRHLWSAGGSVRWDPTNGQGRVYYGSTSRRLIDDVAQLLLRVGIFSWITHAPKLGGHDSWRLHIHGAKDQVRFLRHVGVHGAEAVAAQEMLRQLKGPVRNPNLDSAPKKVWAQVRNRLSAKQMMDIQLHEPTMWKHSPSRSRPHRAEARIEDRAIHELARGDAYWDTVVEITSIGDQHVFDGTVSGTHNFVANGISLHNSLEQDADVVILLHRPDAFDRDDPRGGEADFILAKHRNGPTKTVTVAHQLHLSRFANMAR

Protein RecA = target: T2, Protein RecA (Mycobacterium tuberculosis, UniProt P9WHJ3); assay: Fluorescence Cell-Free Homogeneous Dose Retest to Identify Inhibitors of RecA-Intein Splicing Activity. [Related pubchem assays (depositor defined):AID2097, AID2223, AID489010, AID492950]; type: functional
T2 sequence (P9WHJ3 whole entry): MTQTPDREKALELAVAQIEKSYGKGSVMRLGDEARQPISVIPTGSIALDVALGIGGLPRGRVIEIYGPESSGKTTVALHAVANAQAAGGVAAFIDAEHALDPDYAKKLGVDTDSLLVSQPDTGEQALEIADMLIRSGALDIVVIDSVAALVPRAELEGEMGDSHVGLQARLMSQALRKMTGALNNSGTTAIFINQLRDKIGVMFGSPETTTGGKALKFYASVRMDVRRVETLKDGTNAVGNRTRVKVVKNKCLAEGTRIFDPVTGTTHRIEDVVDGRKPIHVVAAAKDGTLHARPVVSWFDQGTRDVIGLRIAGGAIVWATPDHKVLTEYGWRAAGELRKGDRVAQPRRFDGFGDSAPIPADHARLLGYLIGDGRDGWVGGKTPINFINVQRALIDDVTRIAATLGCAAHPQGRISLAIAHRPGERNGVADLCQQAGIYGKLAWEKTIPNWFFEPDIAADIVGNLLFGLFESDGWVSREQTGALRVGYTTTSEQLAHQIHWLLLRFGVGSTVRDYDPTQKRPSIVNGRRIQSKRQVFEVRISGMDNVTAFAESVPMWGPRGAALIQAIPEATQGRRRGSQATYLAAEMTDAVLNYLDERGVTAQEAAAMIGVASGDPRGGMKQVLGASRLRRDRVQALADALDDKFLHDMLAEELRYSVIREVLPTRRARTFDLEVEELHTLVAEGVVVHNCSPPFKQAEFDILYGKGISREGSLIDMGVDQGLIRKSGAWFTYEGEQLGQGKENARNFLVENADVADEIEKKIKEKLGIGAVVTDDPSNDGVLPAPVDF

[7] = target: T3, Sentrin-specific protease 8 (Homo sapiens, UniProt Q96LD8); type: functional
T3 sequence (Q96LD8 whole entry): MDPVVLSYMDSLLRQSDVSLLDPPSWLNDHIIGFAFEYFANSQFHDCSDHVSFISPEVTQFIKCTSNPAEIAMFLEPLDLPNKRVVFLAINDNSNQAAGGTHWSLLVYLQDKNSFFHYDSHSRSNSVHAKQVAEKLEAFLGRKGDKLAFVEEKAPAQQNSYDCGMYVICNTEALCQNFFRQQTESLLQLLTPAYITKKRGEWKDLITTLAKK

[8] = target: T3, Sentrin-specific protease 8; type: functional; remark: listed apart in the source
Fatty acid synthase = Fatty acid synthase (Homo sapiens, UniProt P49327); assay: inhibition of human FAS-TE enzyme activity – biochemical, endpoint fluorescence intensity, powder samples, SAR follow-up (AID 652164); type: functional
[9] = microbe, parasite or virus in culture; type: functional; conditions: Mycobacterium tuberculosis
[10] = THP-1 cell cytotoxicity, dose response, cytotoxicity control for non-replicating M. tuberculosis project (AID 489025); type: functional
cells [11] = type: functional
[12] = target: 1-phosphatidylinositol 4,5-bisphosphate phosphodiesterase gamma-1 (Homo sapiens, UniProt P19174); assay: Counterscreen for inhibitors of phospholipase C isozymes (PLC-B3): Fluorescence-based biochemical high throughput dose response assay to identify inhibitors of phospholipase C isozymes (PLC-gamma1).
[13] = target: 1-phosphatidylinositol 4,5-bisphosphate phosphodiesterase beta-3 (Homo sapiens, UniProt Q01970); assay: Fluorescence-based biochemical high throughput dose response assay to identify inhibitors of phospholipase C isozymes (PLC-B3).
[14] = MITF Orthogonal Assay: SK-MEL-5 CTG Assay Measured in Cell-Based System Using Plate Reader - 2084-02_Inhibitor_Dose_DryPowder_Activity_Set7.; type: functional
[15] = MITF: Counter assay: A375 proliferation Measured in Cell-Based System Using Plate Reader - 2084-03_Inhibitor_Dose_DryPowder_Activity_Set8.; type: functional; conditions: A-375
[16] = inhibitors of TRPM1-promoter reporter in SK-MEL-5 – cell-based, luciferase, dry powder, set 8, MITF inhibitor project, dose response (AID 624430); type: functional

1-phosphatidylinositol 4,5-bisphosphate phosphodiesterase gamma-1, sequence (P19174 whole entry): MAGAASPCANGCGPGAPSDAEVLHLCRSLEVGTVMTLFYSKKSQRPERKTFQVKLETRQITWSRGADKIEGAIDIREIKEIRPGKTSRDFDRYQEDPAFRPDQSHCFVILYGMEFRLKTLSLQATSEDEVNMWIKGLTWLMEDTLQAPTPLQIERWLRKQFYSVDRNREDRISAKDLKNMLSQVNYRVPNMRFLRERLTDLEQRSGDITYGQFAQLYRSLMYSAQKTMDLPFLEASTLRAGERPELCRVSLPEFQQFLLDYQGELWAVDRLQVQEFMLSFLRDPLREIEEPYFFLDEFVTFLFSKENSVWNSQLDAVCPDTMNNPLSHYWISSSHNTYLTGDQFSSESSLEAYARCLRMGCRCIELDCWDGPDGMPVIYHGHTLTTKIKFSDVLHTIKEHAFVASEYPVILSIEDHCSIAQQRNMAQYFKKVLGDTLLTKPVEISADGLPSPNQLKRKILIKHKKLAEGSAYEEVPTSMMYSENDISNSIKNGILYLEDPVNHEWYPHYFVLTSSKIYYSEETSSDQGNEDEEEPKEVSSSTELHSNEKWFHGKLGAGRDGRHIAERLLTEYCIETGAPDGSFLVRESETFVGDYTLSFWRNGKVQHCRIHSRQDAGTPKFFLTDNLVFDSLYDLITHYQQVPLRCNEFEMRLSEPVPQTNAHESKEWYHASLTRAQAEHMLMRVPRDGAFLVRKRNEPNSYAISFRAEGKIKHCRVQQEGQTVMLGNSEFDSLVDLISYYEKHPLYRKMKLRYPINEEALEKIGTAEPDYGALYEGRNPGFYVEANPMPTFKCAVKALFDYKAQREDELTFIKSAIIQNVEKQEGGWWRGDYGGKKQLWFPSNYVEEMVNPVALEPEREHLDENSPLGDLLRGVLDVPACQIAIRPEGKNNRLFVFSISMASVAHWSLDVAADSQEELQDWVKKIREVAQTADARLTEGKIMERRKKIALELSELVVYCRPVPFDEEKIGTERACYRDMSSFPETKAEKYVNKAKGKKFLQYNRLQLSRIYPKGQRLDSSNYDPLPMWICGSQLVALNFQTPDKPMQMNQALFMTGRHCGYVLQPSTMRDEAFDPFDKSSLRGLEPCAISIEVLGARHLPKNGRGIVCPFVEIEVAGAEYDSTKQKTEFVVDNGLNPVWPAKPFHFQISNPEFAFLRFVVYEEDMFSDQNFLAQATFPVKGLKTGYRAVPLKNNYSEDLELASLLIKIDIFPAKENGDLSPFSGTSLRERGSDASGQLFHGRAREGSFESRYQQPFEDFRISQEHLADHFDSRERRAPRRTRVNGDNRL
Fatty acid synthase, sequence (P49327 whole entry): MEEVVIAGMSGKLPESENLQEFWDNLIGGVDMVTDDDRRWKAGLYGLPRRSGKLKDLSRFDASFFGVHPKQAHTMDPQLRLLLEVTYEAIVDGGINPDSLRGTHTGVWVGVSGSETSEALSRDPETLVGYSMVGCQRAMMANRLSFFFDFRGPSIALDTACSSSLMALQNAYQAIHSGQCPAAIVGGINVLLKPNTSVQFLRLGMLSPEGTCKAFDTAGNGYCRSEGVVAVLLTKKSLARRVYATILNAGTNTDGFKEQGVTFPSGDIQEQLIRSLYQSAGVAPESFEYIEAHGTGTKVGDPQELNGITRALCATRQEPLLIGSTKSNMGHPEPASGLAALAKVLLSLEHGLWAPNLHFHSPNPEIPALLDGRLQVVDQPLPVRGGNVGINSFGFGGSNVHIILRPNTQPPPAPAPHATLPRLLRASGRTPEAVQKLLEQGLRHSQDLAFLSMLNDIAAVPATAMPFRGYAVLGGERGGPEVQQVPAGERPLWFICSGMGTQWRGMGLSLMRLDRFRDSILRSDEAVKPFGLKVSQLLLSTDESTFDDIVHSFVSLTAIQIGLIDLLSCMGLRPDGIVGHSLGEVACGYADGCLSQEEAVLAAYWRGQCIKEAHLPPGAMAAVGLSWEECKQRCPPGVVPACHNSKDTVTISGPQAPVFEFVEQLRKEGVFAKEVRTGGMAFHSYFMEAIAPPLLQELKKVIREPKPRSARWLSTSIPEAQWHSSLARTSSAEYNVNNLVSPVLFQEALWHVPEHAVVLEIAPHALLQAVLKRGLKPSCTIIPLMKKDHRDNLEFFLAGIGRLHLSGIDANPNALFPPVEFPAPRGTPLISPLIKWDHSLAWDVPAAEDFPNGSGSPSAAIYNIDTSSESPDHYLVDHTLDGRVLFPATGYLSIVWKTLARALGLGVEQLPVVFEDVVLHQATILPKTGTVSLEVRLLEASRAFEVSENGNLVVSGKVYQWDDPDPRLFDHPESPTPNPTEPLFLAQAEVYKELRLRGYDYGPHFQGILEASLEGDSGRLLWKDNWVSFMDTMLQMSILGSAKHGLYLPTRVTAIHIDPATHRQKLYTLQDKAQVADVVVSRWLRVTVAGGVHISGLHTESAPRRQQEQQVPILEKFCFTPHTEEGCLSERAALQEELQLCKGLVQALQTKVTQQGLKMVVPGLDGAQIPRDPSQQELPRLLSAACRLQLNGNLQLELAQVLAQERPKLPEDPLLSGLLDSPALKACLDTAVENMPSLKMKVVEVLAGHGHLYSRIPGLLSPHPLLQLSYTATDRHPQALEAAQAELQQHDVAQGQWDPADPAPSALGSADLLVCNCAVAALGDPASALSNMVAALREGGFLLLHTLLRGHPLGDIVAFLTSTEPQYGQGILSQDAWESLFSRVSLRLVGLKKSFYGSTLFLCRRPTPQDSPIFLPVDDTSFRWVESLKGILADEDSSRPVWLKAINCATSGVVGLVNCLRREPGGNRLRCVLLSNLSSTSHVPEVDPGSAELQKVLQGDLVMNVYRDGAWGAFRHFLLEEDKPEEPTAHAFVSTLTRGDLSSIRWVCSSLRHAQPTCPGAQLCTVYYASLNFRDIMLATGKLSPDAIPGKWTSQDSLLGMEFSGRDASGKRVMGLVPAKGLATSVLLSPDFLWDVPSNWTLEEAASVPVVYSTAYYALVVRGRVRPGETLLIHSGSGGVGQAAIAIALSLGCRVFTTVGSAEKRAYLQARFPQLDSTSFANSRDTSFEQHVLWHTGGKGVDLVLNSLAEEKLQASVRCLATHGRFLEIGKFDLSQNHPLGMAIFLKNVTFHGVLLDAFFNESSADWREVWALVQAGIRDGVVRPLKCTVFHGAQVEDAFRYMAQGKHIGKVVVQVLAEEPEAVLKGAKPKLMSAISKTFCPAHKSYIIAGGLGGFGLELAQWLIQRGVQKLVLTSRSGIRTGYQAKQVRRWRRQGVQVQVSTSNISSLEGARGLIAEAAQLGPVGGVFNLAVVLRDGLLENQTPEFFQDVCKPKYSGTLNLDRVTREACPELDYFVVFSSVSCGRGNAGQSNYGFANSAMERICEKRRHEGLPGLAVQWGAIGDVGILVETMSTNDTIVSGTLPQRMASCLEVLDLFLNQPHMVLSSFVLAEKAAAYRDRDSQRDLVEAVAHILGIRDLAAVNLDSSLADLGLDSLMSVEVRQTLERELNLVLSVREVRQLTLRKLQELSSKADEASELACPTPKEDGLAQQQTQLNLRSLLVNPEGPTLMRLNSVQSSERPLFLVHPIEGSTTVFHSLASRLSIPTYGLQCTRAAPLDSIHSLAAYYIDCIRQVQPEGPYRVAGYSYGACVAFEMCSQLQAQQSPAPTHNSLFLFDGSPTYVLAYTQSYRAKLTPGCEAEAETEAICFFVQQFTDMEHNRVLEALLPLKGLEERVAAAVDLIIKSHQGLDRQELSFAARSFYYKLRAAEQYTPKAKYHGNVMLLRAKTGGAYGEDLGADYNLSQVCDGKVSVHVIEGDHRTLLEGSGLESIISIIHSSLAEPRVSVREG
1-phosphatidylinositol 4,5-bisphosphate phosphodiesterase beta-3, sequence (Q01970 whole entry): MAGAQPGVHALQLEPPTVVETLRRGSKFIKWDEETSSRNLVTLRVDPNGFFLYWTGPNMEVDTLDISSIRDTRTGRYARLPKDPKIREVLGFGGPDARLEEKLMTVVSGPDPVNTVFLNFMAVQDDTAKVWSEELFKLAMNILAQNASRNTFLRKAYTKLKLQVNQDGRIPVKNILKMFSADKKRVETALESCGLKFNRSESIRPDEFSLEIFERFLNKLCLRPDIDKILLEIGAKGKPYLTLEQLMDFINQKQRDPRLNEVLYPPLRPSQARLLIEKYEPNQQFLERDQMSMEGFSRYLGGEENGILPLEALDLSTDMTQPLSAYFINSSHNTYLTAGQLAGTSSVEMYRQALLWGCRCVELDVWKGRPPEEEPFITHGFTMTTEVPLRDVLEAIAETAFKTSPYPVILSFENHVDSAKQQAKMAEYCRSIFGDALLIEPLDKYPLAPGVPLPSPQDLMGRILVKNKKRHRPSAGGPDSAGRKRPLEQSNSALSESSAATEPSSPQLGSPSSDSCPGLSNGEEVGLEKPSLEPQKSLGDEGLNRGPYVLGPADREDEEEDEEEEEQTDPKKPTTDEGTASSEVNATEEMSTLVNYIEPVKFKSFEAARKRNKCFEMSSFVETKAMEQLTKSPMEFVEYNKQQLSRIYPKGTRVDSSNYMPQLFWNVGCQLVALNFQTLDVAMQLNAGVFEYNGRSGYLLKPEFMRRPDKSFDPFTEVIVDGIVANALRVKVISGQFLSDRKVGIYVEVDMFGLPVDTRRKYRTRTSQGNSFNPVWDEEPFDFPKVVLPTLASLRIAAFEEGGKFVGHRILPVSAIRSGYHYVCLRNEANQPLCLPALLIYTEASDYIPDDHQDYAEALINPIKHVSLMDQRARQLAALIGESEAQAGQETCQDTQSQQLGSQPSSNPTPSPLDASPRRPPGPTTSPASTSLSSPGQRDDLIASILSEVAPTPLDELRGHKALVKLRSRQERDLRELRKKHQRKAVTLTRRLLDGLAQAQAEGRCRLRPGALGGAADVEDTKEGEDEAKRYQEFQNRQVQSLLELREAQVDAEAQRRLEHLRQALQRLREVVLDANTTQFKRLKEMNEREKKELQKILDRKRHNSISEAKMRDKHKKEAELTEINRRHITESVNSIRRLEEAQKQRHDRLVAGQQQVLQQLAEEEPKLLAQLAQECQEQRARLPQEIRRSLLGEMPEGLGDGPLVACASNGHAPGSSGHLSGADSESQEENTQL

C=C1CCCC2OC(CC3=CC4/C(C)=C/CC(C)CC(/C=C(\C)C(O)C5CC(O)C(O)C(CCC(O)/C=C/C(C)=C/CCC6=NCCC(C3)C64C)O5)OC(=O)CC3OC(C(O)C1)C(O)C3O)CC(O)C2O (stereo not given)
IC50 (cells [1]): > 67.5 µM (inactive)
IC50 [2]: > 67.5 µM (inactive)

CCOc1ccc(NC2=CC(=O)C(=O)c3ccccc32)cc1
IC50 [3]: > 128 µM (inactive)

O=C(C1CCCC1)N1CCCCN2[C@@H](CO)[C@H](c3ccc(-c4cccc(F)c4)cc3)[C@@H]2C1
AC50 [4]: 0.121 µM (active)

CC(=O)Oc1ccc2oc(/C=C/N(C)C)c([N+](=O)[O-])c2c1
IC50 [5]: 56.8 µM (inactive)

Cc1cc(C)nc(N2N=C(C(C)(C)C)CC2=O)n1
AC50 [6]: 14.9 µM (active)
EC50 (Protein RecA): 10.9 µM (active)
IC50 [7]: 8.2 µM (active)
IC50 [8]: 12.1 µM (active)

CCCCC(=O)Nc1nc(-c2cccc(S(=O)(=O)N3CCOCC3)c2)cs1
IC50 (Fatty acid synthase): 20.2 µM (inactive)

Cc1c([N+](=O)[O-])cnc(Sc2ccccc2)c1[N+](=O)[O-]
CC50 [9]: 30.3 µM (active)
CC50 [10]: 26.1 µM (active)
IC50 (cells [11]): 7.94 µM (active)
AC50 [6]: 0.181 µM (active)
EC50 (Protein RecA): 0.0479 µM (active)
IC50 [12]: > 122 µM (inactive)
IC50 [13]: > 122 µM (inactive)

O=C1C(Nc2cccc(Br)c2)=C(N2CCCCC2)C(=O)c2ccccc21
AC50 [14]: 19.7 µM (active)
AC50 [15]: > 70 µM (inactive)
AC50 [16]: 9.81 µM (active)
